The test system of experiment [1] is Onchocerca gutturosa Adult Male Worms. Briefly: Onchocerciasis in vitro screening model, worm motility score. To be noted: read-out: O. gutturosa activity level (IC50 or MED). The experiment is classed as cell-based.
Another experiment has as its system B. pahangi adult worms. Briefly: Parasite motility assay, adult B. pahangi. The experiment is classed as cell-based, Brugia pahangi. To be noted: in vitro motility, active at compound concentrations below 1 μM. As for the experimental part:
Parasite Motility Assays. Adult and microfilariae B. malayi and B. pahangi parasites, harvested from infected jirds, were procured from the NIAID/NIH Filariasis Research Reagent Resource Center (FR3). […] (Athens, Ga.). Adult worms were plated in 24-well plates with 2 mL of Advanced RPMI 1640 medium (Invitrogen) supplemented with 25 mM HEPES, 2 mM L-Glutamine (Invitrogen), 100 U/mL Penicillin (Invitrogen), 100 µg/mL Streptomycin (Invitrogen), […] Amphotericin B solution (Invitrogen), and 5% heat inactivated fetal bovine serum and placed in a 37° C. humidified incubator with 5% CO2. After 24 h, adult worms were selected based upon motility as described below. After scoring for motility, 4-6 highly motile worms were selected for each treatment group and were transferred to new plates. Microfilariae were centrifuged at 5000×g for 5 min, and re-suspended in 2 ml of media. Microfilarial density was determined using a hemocytometer and were plated in a 96-well plate at 80 microfilariae/well with 200 μL of complete media. Treatment groups received compounds (0.1% DMSO) at 1 μM and 100 nM with 0.1% DMSO as a vehicle control. Cultures were incubated at 37° C. in a humidified incubator with 5% CO2. […] The motility of the worms and microfilariae were evaluated every 24 h and analyzed by a one sided unpaired Student's t-test using Microsoft Excel. […]

The subject of experiment [2] is L. sigmodontis adult worms. Briefly: Parasite motility assay, adult L. sigmodontis. The experiment is classed as cell-based, Litomosoides sigmodontis. To be noted: in vitro motility, active at compound concentrations below 1 μM.
For experiment [3], the system named is L. sigmodontis microfilariae. Briefly: Parasite motility assay, L. sigmodontis microfilariae. It counts as cell-based, Litomosoides sigmodontis. To be noted: in vitro motility, active at compound concentrations below 1 μM.
Setting [4] is: in vitro, Onchocerca gutturosa adult male worms, class A/B/C.
Setting [5] is: Onchocerca gutturosa, Table 1 O. gutturosa, levels A/B/C, motility or MTT readout not specified.

Like-named read-outs stand apart in the source and are kept apart here.

What is called IC50 is the midpoint of a concentration-inhibition curve. On to “2-(3-(5-isoprop- oxypyridin-2- yl)-1,2,4- thiadiazol-5- ylamino)-N,N- dimethyl-5- (trifluoromethyl) nicotinamide [Compound 250]”, for which the IC50 in experiment [1] (setting [4]) is 500 to 5000 nM. In addition, the “B. pahangi activity against adult filaria (level E)” value in the experiment on B. pahangi adult worms is reported as “E (activity against adult filaria at compound concentrations below 1 μM (activity level E))”. For the same compound, in experiment [2], the “L. sigmodontis activity against adult filaria (level E)” value was “E (activity against adult filaria at compound concentrations below 1 μM (activity level E))”. Moreover, in experiment [3], the “L. sigmodontis activity against microfilaria (level D)” value is reported as “D (activity against microfilaria at compound concentrations below 1 μM (activity level D))”.

Regarding `CC(C)c1cnc(Nc2nc(-c3ccc(OC4CC4)cn3)ns2)cc1C(F)(F)F` [Compound 95, 3-(5-cyclopropoxy-pyridin-2-yl)-N-(5-isopropyl-4-(trifluoromethyl)pyridin-2-yl)-1,2,4-thiadiazol-5-amine], the IC50 in experiment [1] (setting [5]) was less than 200 nM.

Turning to `CN1CCC(Oc2ccnc(-c3nsc(Nc4ncccc4C(F)(F)F)n3)c2)CC1` [Compound 62, 3-(4-(1-methyl-piperidin-4-yloxy)pyridin-2-yl)-N-(3-(trifluoromethyl)pyridin-2-yl)-1,2,4-thiadiazol-5-amine], in experiment [1] (setting [5]), the IC50 is less than 200 nM.

Consider `c1ccc(-c2ccnc(Nc3nc(-c4ccccn4)ns3)c2)cc1` [Compound 237, N-(4-phenyl-pyridin-2-yl)-3-(pyridin-2-yl)-1,2,4-thiadiazol-5-amine], for which, in experiment [1] (setting [4]), the IC50 is 500 to 5000 nM.

Turning to `CC(=O)N(C)c1cnc(Nc2nc(-c3cc(OC(C)C)ccn3)ns2)c(C(F)(F)F)c1` [Compound 285, N-(6-(3-(4-isopropoxy-pyridin-2-yl)-1,2,4-thiadiazol-5-ylamino)-5-(trifluoromethyl)pyridin-3-yl)-N-methylacetamide], in experiment [1] (setting [4]), the IC50 was 500 to 5000 nM.

Consider `CN(C)c1cccnc1Nc1nc(-c2ccc(OC3CCN(C4CC4)CC3(F)F)cn2)ns1` (centres unmarked) [Compound 123, N2-(3-(5-(1-cyclopropyl-3,3-difluoro-piperidin-4-yloxy)pyridin-2-yl)-1,2,4-thiadiazol-5-yl)-N3,N3-dimethyl-pyridine-2,3-diamine], for which the IC50 in experiment [1] (setting [5]) was less than 200 nM.

On to `COc1ccc(-c2nsc(Nc3ccc(C4CCN(C)CC4)cn3)n2)nc1` [Compound 50, 3-(5-methoxy-pyridin-2-yl)-N-(5-(1-methyl-piperidin-4-yl)pyridin-2-yl)-1,2,4-thiadiazol-5-amine], for which the half-inhibitory concentration (IC50) in experiment [1] (setting [5]) fell in the range of 500 to 5000 nM.

As to `Cc1cccnc1Nc1nc(-c2ncc(OC(C)C)cn2)ns1` [Compound 315, 3-(5-isopropoxy-pyrimidin-2-yl)-N-(3-methylpyridin-2-yl)-1,2,4-thiadiazol-5-amine], the IC50 in experiment [1] (setting [4]) fell in the range of 500 to 5000 nM.

On to `COc1ccc(Nc2nnc(-c3cc(OC4CCCCC4)ccn3)o2)nc1` [Compound 214, 5-(4-(cyclohexy-loxy)pyridin-2-yl)-N-(5-methoxypyridin-2-yl)-1,3,4-oxadiazol-2-amine], for which, in experiment [1] (setting [4]), the IC50 is less than 200 nM.

In the case of `CN(C)c1cccnc1Nc1nc(-c2ccc(S(=O)(=O)C3CCN(C4CC4)CC3)cn2)ns1` [Compound 145, N2-(3-(5-(1-cyclopropyl-piperidin-4-ylsulfonyl)pyridin-2-yl)-1,2,4-thiadiazol-5-yl)-N3,N3-dimethyl-pyridine-2,3-diamine], the IC50 in experiment [1] (setting [5]) fell in the range of 500 to 5000 nM.

With `Cc1cccnc1Nc1nc(-c2ccc(OC3CCN(C4CC4)CC3)cn2)ns1` [Compound 45, 3-(5-(1-cyclo-propylpiperidin-4-yloxy)pyridin-2-yl)-N-(3-methylpyridin-2-yl)-1,2,4-thiadiazol-5-amine], the IC50 in experiment [1] (setting [5]) is less than 200 nM.

On to `CC(C)c1cccnc1Nc1nc(-c2ccc(O[C@@H]3CCN(C4CC4)C[C@@H]3F)cn2)ns1` [Compound 89, 3-(5-((3S,4R)-1-cyclopropyl-3-fluoro-piperidin-4-yloxy)pyridin-2-yl)-N-(3-isopropylpyridin-2-yl)-1,2,4-thiadiazol-5-amine], for which, in experiment [1] (setting [5]), the IC50 was less than 200 nM.

Turning to `Cc1cccnc1Nc1nc(-c2ccc(OC(F)(F)F)cn2)ns1` [Compound 52, N-(3-methyl-pyridin-2-yl)-3-(5-(trifluoro-methoxy)pyridin-2-yl)-1,2,4-thiadiazol-5-amine], the IC50 in experiment [1] (setting [5]) was less than 200 nM.

With `CN(C)c1cccnc1Nc1nc(-c2cc(C(F)(F)F)c(OC3CC3)cn2)ns1` [Compound 111, N2-(3-(5-cyclo-propoxy-4-(trifluoromethyl)pyridin-2-yl)-1,2,4-thiadiazol-5-yl)-N3,N3-dimethyl-pyridine-2,3-diamine], in experiment [1] (setting [5]), the IC50 is less than 200 nM.

Take `FC(F)(F)c1ccnc(Nc2nc(-c3cc(C4CC4)ccn3)ns2)c1` [Compound 85, 3-(4-cyclopropyl-pyridin-2-yl)-N-(4-(trifluoromethyl)pyridin-2-yl)-1,2,4-thiadiazol-5-amine]: in experiment [1] (setting [5]), the concentration for half-maximal inhibition (IC50) is less than 200 nM.

Consider `Cc1ccnc(-c2noc(Nc3ncccc3F)n2)c1` [Compound 14, N-(3-fluoro-pyridin-2-yl)-3-(4-methylpyridin-2-yl)-1,2,4-oxadiazol-5-amine], for which the half-maximal inhibitory concentration (IC50) in experiment [1] (setting [5]) was in the range of 500 to 5000 nM.

With `Cc1cccnc1Nc1nc(-c2ccc(C(=O)N(C)C)cn2)no1` [Compound 277, N,N-dimethyl-6-(5-(3-methylpyridin-2-ylamino)-1,2,4-oxadiazol-3-yl)nicotinamide], in experiment [1] (setting [4]), the IC50 fell in the range of 500 to 5000 nM.

Take `CC(C)Oc1ccc(-c2nsc(Nc3ncccc3N3CCCC3=O)n2)nc1` [Compound 178, 1-(2-(3-(5-isopropoxy-pyridin-2-yl)-1,2,4-thiadiazol-5-ylamino)pyridin-3-yl)pyrrolidin-2-one]: the IC50 in experiment [1] (setting [5]) lay in the range of 500 to 5000 nM.

For `CC(C)Oc1ccc(-c2nsc(Nc3ncccc3C(N)=O)n2)nc1` [Compound 164, 2-(3-(5-isoprop-oxypyridin-2-yl)-1,2,4-thiadiazol-5-ylamino) nicotinamide], the IC50 in experiment [1] (setting [5]) fell in the range of 500 to 5000 nM.

As for `CC(=O)N(C)c1cnc(Nc2nc(-c3ccc(OC(C)C)cn3)ns2)c(C(F)(F)F)c1` [Compound 300, N-(6-(3-(5-isopropoxypyridin-2-yl)-1,2,4-thiadiazol-5-ylamino)-5-(trifluoromethyl)pyridin-3-yl)-N-methylacetamide], the IC50 in experiment [1] (setting [4]) lay within 500 to 5000 nM.

(Values after patent US11505548B2, “Heterocyclic compounds and their use for treatment of helminthic infections and diseases” (Celgene Corporation, priority 2019, dated 2022).)
